Patent US8337851B2, “Methods of monitoring the efficacy of anti-CD40 antibodies in treating a subject for a CD40-expressing cancer” (Novartis AG, priority 2005, dated 2012)
Entries after “also recorded” stand apart in the source; their conditions may differ.

Legend:
normal B cells = experiment: CD40L-induced production of VEGF in normal B cells; assay type: cell-based, human
Text: (§1) In another experiment, CD40L-induced production of VEGF in normal B cells and CLL cells obtained from patients with CLL is examined in a manner similar to that described above.

[1] = system: CLL cells obtained from patients with CLL; experiment: CD40L-induced production of VEGF in CLL cells; assay type: cell-based, human
Text: as §1

cell-surface CD40 = cell-surface CD40 (Homo sapiens, UniProt P25942); experiment: Flow cytometric CD40-ligand binding blockade and displacement; settings: flow cytometric assays / FACS
Chain of cell-surface CD40 (P25942 21-277): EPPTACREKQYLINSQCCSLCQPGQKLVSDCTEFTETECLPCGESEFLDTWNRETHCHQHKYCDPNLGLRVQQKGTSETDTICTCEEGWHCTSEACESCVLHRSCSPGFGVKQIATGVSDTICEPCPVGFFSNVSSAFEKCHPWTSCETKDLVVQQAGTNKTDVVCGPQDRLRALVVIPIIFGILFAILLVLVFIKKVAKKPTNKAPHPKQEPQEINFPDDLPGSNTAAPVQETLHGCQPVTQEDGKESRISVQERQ
Text: (§2) 2, 2000, and PCT International Application No. PCT/US01/30857, also titled “Human Anti-CD40 Antibodies,” filed Oct. 2, 2001, both of which are herein incorporated by reference in their entirety.
(§3) 4, 2003, Nov. 26, 2003, and Apr. 27, 2004, and assigned U.S. Patent Application Nos. 60/517,337, 60/525,579, and 60/565,710, respectively, and International Patent Application No. PCT/US2004/037152, also entitled “Antagonist, Anti-CD40 Monoclonal Antibodies and Methods for Their Use,” filed Nov. 4, 2004; the contents of each of which are herein incorporated by reference in their entirety.

[2] = system: B cells from normal human subjects; experiment: In vitro CD40 ligand-mediated proliferation of normal B cells; assay type: cell-based
Text: as §2, §3

[3] = system: B-CLL cells from patients; experiment: RT-PCR timecourse of transcripts in B-CLL cells; assay type: cell-based, human; settings: 10 μg/mL with sCD40L, vs IgG1
Protocol: Cell pellets were collected at 0 hr (no CD40L), 1, 4 and 24 hr and lysed simultaneously at the end. RNA was isolated using the RNeasy kit, and cDNA was prepared using the ABI RT kit. Two-step RT-PCR was done with the genes shown in two separate reactions, based on TM of each set of oligos.

B-CLL cells [4] = experiment: p38 MAPK signaling in B-CLL cells, four-hour experiment; assay type: cell-based, human; settings: 4 hours
Protocol: In the four-hour experiment, approximately 0.8×10^6 B-CLL cells per well were serum starved in 1% FBS-containing media for 4 hours. […] Cell lysates were collected before and 20 minutes after CD40L stimulation. Western blot analysis with antibodies against specific proteins shown were conducted, and equal loading was evaluated by probing with antibodies to total p38 (t-p38) and β-actin.

CLL cells = experiment: CD40L-induced cytokine secretion by CLL cells (Meso Scale Discovery); assay type: cell-based, human; settings: CLL #1; 10 μg/ml, 24 hours; preliminary, n=1
Protocol: Cells (1×10^5 cells per well) were cultured in a 96-well plate in the presence or absence of CD40L (CD40 transfected, formaldehyde fixed CHO cells, 2×10^5 per well). […] Production of hIL-6, hIL-8, hIL-10, hTNF-α, hGM-CSF, hIL-1b, hIL-12p70, MCP-1, and MIP-1β was measured by Meso Scale Discovery® multi-array system (Meso Scale Discovery, Gaithersburg, Md.).

B-CLL cells [5] = experiment: cPARP flow cytometry of CLL patient PBMCs; assay type: cell-based, human; settings: 24 hours, 10 μg/ml
Protocol: [formula] cPARP analysis by flow cytometry was performed after 24 hours in culture. Cells were treated with FACSLysis buffer (BD Biosciences) and frozen. After fixation in 1% formaldehyde for 45 min, cells were washed and incubated with PE-conjugated mouse anti-human CD19 for 30 min at room temperature (RT). Cells were then permeabilized using 70% ethanol on ice for 30 min and stained for 30 min at RT with rabbit anti-human cPARP antibody or isotype control rabbit IgG along with PerCP-Cy5.5-labeled mouse anti-human CD5. This was followed by incubation with goat anti-rabbit IgG-AlexaFluor 647 for 30 min at RT before fixing with 1% formaldehyde and analyzing by flow cytometry. Percent blockade was calculated as follows: […]

normal human B cells = experiment: Western blot of survival and signaling markers in normal human B cells; assay type: cell-based; settings: 10 μg/ml, 24 hr, 2 μg/ml rhsCD40L, vs hIgG1
Text: Cells were lysed and whole cell lysates resolved by SDS-PAGE and Western blotting using antibodies specific to human cPARP, Mcl-1, Bcl-xl, p-Akt, and p-p38 MAPK. All membranes were stripped and re-probed for either β-actin or AKT or p38 MAPK total protein, as appropriate.

## CHIR-12.12: fully human anti-CD40 monoclonal antibody of the IgG1 isotype from hybridoma cell line 153.8E2.D10.D6.12.12 (ATCC PTA-5543)
Normal B cells
  CD40L-induced production of VEGF: inhibit CD40L-induced production of VEGF
[1]
  CD40L-induced production of VEGF: inhibit CD40L-induced production of VEGF
cell-surface CD40
  displacement of pre-bound CD40-ligand: displace the pre-bound CD40-ligand; also recorded: can compete off CD40-ligand pre-bound to cell surface CD40
  prevention of CD40-ligand binding to cell-surface CD40: prevent the binding of CD40-ligand to cell-surface CD40; also recorded: can prevent CD40-ligand binding
[2]
  effect on proliferation of normal B cells: act as antagonist anti-CD40 antibodies; also recorded: inhibit in vitro CD40 ligand-mediated proliferation of normal B cells
[3]; 1, 4, 24 hr
  RNA expression of CD40, CD40L, VEGF, TRAF2 and TRAF3: inhibition of RNA expression
[3]
  RNA expression of IL-6: no transcriptional changes
  RNA expression of TRAF6 and Mcl-1: minor down-regulation
B-CLL cells [4]; 10 μg/mL
  Phospho-IKKα/β activation by CD40L: inhibited
B-CLL cells [4]; SB203580 30 and 60 μM, CHIR-12.12 10 μg/mL
  p38 activation by CD40L: fully inhibited
CLL cells
  inhibition of CD40-ligand-induced MCP-1 secretion: 34.8 % inhibition
  inhibition of CD40-ligand-induced hGM-CSF secretion: 86.5 % inhibition
  inhibition of CD40-ligand-induced hIL-8 secretion: 91.0 % inhibition
  inhibition of CD40-ligand-induced hIL-10 secretion: 99.6 % inhibition
  inhibition of CD40-ligand-induced hTNF-α secretion: 89.6 % inhibition
B-CLL cells [5]
  blockade of CD40L-promoted survival: in each case, these effects were blocked
Normal human B cells
  CD40L-mediated effects on cPARP, Mcl-1, Bcl-xl, p-Akt, p-p38: blocked these CD40L-mediated effects on normal B cells
